Measured values from patent publication US8563729B2, “Thienopyridone derivatives as AMP-activated protein kinase (AMPK) activators” (Merck Patent GmbH, priority 2008, dated 2013).

Columns and labels:
[1] = biological target: T1, AMPK protein (recombinant α1β1γ2) (Homo sapiens, UniProt Q13131+Q9Y478); experiment: AMPK enzymatic activity (Delfia, AMARA peptide substrate); format: biochemical; details: compound 30 μM vs AMP 30 μM; 125 μM ATP; ratio 90% or higher = direct activator
T1 construct: made in house; host or cells: E. coli
T1 sequence (Q13131 whole entry): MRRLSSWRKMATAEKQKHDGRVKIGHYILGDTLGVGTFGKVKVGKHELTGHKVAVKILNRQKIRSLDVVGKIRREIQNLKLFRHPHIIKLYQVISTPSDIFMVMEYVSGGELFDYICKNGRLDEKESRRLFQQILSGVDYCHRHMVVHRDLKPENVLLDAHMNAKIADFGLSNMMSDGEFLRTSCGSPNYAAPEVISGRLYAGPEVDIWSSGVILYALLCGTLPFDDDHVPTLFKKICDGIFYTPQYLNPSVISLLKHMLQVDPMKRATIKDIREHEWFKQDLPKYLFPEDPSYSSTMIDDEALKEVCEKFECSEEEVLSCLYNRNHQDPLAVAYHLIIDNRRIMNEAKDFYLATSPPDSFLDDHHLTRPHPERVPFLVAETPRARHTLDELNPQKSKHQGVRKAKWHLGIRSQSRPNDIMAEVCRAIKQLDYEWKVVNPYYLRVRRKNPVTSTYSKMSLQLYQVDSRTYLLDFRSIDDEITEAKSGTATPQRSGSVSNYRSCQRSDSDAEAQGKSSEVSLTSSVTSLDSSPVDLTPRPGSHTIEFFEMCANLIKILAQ
T1 sequence (Q9Y478 whole entry): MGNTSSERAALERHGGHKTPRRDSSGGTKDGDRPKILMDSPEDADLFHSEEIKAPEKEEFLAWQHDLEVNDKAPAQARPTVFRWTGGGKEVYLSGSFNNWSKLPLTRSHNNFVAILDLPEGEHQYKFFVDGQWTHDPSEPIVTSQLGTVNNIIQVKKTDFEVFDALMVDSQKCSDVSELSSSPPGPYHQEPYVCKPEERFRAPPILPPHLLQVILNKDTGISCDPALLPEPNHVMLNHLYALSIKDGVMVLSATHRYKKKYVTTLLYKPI
T1 sequence (Q9UGJ0 whole entry partner): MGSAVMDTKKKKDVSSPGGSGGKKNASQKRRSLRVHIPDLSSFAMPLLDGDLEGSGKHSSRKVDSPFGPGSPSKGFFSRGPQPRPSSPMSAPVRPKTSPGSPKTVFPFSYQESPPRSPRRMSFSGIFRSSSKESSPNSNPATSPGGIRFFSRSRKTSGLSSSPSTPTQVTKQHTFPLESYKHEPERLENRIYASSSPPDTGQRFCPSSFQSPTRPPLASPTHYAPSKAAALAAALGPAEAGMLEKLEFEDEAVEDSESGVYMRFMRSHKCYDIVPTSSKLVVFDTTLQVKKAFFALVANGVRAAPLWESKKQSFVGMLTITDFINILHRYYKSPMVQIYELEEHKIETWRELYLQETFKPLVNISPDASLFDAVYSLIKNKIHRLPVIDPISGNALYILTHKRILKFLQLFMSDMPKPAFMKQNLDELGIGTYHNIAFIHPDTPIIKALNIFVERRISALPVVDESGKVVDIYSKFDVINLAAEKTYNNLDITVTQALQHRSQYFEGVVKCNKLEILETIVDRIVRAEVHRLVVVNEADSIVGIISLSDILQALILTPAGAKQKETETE
Method: The following biological test allows the determination of the efficacy of such compounds of formula (I) onto AMPK protein (recombinant α1β1γ2).
Human recombinant AMPK enzyme was expressed in E. Coli and was reactivated in vitro by LKB1 prior to enzyme activity determination.
AMPK enzyme activities were assayed by using A Delfia technology. AMPK enzyme activities were carried out in microtiter plates (50 mM Hepes buffer, pH 7.4 with 125 μM ATP respectively) in the presence of a synthetic peptide substrate (AMARAASAAALARRR, the “AMARA” peptide) and activators in serial dilutions. Reactions were initiated by the addition of AMPK (50-100 ng). Following mixing, the plates were incubated for 30 min at room temperature. Enzyme activity was assayed by using an anti-phosphoserine antibody to measure the quantity of phosphate incorporated into the AMARAA.
(§1) N°: Number of the molecule
Activity: Ratio between the % of control (basal activity) of compound of formula (I) at 30 μM and the % of control (basal activity) of AMP (natural substrate) at 30 μM.
Compounds of formula (I) in the table II are considered as direct activator of AMPK if the ratio is 90% or higher.

[2] = tested on: H-2 Kb cells; experiment: Glucose uptake in H-2 Kb cells (in vitro cellular test); format: cell-based, mouse; details: H-2 Kb cells differentiated in muscle, 4 hours incubation, 2-deoxy-D-[1,2 3H] glucose uptake 10 min
Method: Glucose Uptake in H-2 Kb Cells (In Vitro Cellular Test)
The following cellular test allows the determination of the effect of AMPK activators such as compounds of formula (I) onto glucose uptake in a muscle cellular model.
H-1-2 Kb cells derived from heterozygous H-2 Kb tsA58 transgenic mouse were grown in 24-well in plates coated with matrigel and were cultured at 33° C. for 4 days under permissive conditions, as described previously by Fryer et al. (Diabetes 49 (12): 1978, 2000).
For differentiation in muscle, cells were switched to non-permissive culture conditions (37° C. in the absence of interferon-γ). After 3 days, cells were incubated for 4 hours in DMEM 1 g/l glucose culture medium containing different concentrations of the tested molecules. Then glucose uptake was measured by incubating the cells for 10 min with radiolabelled 2-deoxy-D-[1,2 ^3H] glucose. Glucose uptake was terminated by rapidly washing the plates 2 times with ice-cold NaCl 0.9%. The cells were then solubilized in 0.1N NaOH for 30 min. Radioactivity was determined by liquid scintillation counting.
as §1
Activity (table III): Concentration of compound (I) for a glucose uptake equal or higher to glucose uptake induced by insulin (170 nM)
^++ or **concentration of compound (I) ≦10 micro Molar
^+ or *concentration of compound (I) >10 micro Molar

| activity: Ratio between the % of control (basal activity) of compound of formula (I) at 30 μM and the % of control (basal activity) of AMP at 30 μM [1] [%] | Structure (SMILES) | Activity (table III): Concentration of compound (I) for a glucose uptake equal or higher to glucose uptake induced by insulin (170 nM) [2] |
| --- | --- | --- |
| 213 | Cc1cc(O)c(-c2c(Cl)sc3[nH]c(=O)c(-c4ccccc4)c(O)c23)cc1C [Compound 207] | + (^+ or *concentration of compound (I) >10 micro Molar) |
| 245 | Cc1cccc(-c2c(O)c3c(-c4ccccc4)c(Cl)sc3[nH]c2=O)c1 [Compound 176] | ++ (^++ or **concentration of compound (I) ≦10 micro Molar) |
| 252 | O=c1[nH]c2sc(Cl)c(-c3ccccc3)c2c(O)c1-c1cccc(F)c1 [Compound 175] | + (^+ or *concentration of compound (I) >10 micro Molar) |
| 354 | Cc1ccccc1-c1c(O)c2c(-c3ccccc3)c(Cl)sc2[nH]c1=O [Compound 164] | + (^+ or *concentration of compound (I) >10 micro Molar) |
| 196 | O=c1[nH]c2sc(Cl)c(-c3ccccc3)c2c(O)c1-c1ccsc1 [Compound 169] | ++ (^++ or **concentration of compound (I) ≦10 micro Molar) |
| 102 | COc1ccc(-c2c(Cl)sc3[nH]c(=O)c(-c4cccc(C#N)c4)c(O)c23)cc1 [Compound 129] | ** (^++ or **concentration of compound (I) ≦10 micro Molar) |
| 363 | Cc1ccc(-c2csc3[nH]c(=O)c(-c4ccccc4)c(O)c23)c(O)c1F [Compound 198] | + (^+ or *concentration of compound (I) >10 micro Molar) |
| 331 | N#Cc1cccc(-c2c(O)c3c(-c4ccc(F)cc4)c(Cl)sc3[nH]c2=O)c1 [Compound 131] | * (^+ or *concentration of compound (I) >10 micro Molar) |
| 200 | O=c1[nH]c2sc(Cl)c(-c3ccc(O)c(F)c3)c2c(O)c1-c1ccccc1 [Compound 109] | ** (^++ or **concentration of compound (I) ≦10 micro Molar) |
| 98 | O=c1[nH]c2sc(Cl)c(-c3cccc(F)c3)c2c(O)c1-c1ccccc1 [Compound 126] | * (^+ or *concentration of compound (I) >10 micro Molar) |
| 201 | O=c1[nH]c2scc(-c3ccc4ccccc4c3)c2c(O)c1-c1ccccc1 [Compound 33] | * (^+ or *concentration of compound (I) >10 micro Molar) |
| 488 | O=c1[nH]c2sc(Cl)c(-c3ccc4ccccc4c3O)c2c(O)c1-c1ccccc1 [Compound 136] | ** (^++ or **concentration of compound (I) ≦10 micro Molar) |
| 175 | COc1ccc(F)cc1-c1c(Cl)sc2[nH]c(=O)c(-c3ccccc3)c(O)c12 [Compound 189] | + (^+ or *concentration of compound (I) >10 micro Molar) |
| 121 | CN(C)c1ccc(-c2c(O)c3c(-c4ccccc4)csc3[nH]c2=O)cc1 [Compound 22] | ** (^++ or **concentration of compound (I) ≦10 micro Molar) |
| 138 | O=c1[nH]c2sc(Cl)c(-c3ccc(Cl)cc3)c2c(O)c1-c1ccccc1 [Compound 178] | ++ (^++ or **concentration of compound (I) ≦10 micro Molar) |
| 149 | Cc1ccc(-c2c(F)sc3[nH]c(=O)c(-c4ccc(F)cc4)c(O)c23)c(O)c1F [Compound 211] | + (^+ or *concentration of compound (I) >10 micro Molar) |
| 147 | O=c1[nH]c2sc(Cl)c(-c3ccccc3)c2c(O)c1-c1ccc(C(F)(F)F)cc1 [Compound 171] | + (^+ or *concentration of compound (I) >10 micro Molar) |
| 126 | Cc1ccc(-c2csc3[nH]c(=O)c(-c4ccccc4)c(O)c23)cc1 [Compound 35] | ** (^++ or **concentration of compound (I) ≦10 micro Molar) |
| 153 | O=c1[nH]c2sc(Cl)c(-c3ccccc3)c2c(O)c1-c1ccc(F)cc1 [Compound 172] | + (^+ or *concentration of compound (I) >10 micro Molar) |
| 181 | COc1cccc(-c2c(O)c3c(-c4ccccc4)c(C)sc3[nH]c2=O)c1 [Compound 15] | * (^+ or *concentration of compound (I) >10 micro Molar) |
| 101 | Cc1cccc(-c2c(Cl)sc3[nH]c(=O)c(-c4ccccc4)c(O)c23)c1 [Compound 125] | ** (^++ or **concentration of compound (I) ≦10 micro Molar) |
| 115 | COc1ccc(-c2csc3[nH]c(=O)c(-c4ccccc4)c(O)c23)c(F)c1 [Compound 63] | * (^+ or *concentration of compound (I) >10 micro Molar) |
| 234 | COc1ccc(-c2c(O)c3c(-c4ccccc4)c(Cl)sc3[nH]c2=O)cc1OC [Compound 177] | ++ (^++ or **concentration of compound (I) ≦10 micro Molar) |
| 96 | COc1ccc(-c2c(O)c3c(-c4ccccc4)csc3[nH]c2=O)cc1 [Compound 19] | * (^+ or *concentration of compound (I) >10 micro Molar) |
| 113 | O=c1[nH]c2sc(Br)c(-c3ccccc3)c2c(O)c1-c1ccccc1 [Compound 161] | ** (^++ or **concentration of compound (I) ≦10 micro Molar) |
| 305 | Cc1ccc(-c2c(Cl)sc3[nH]c(=O)c(-c4ccccc4)c(O)c23)c(O)c1C [Compound 202] | ++ (^++ or **concentration of compound (I) ≦10 micro Molar) |
| 122 | COc1c(-c2c(Cl)sc3[nH]c(=O)c(-c4ccccc4)c(O)c23)ccc(C)c1C [Compound 201] | + (^+ or *concentration of compound (I) >10 micro Molar) |
